Laboratory results reported in PMC9011347, “Small-Molecule Inhibitors Targeting Lipolysis in Human Adipocytes” (Journal of the American Chemical Society, 2022).
Where two headings read alike, the source gives them in different places.

Columns and labels:
[1] = system: human Simpson–Golabi–Behmel syndrome (SGBS) adipocytes; assay: Lipolysis in SGBS adipocytes (FA, glycerol release, DAG content); assay type: cell-based; details: for IC50: Homo sapiens, 1 h preincubation, isoproterenol 1 μM
Description: (§1) Figure 3 NG-497 inhibits lipolysis in human SGBS and primary human adipocytes. SGBS adipocytes were preincubated with NG-497 for 1 h at the indicated concentrations. Subsequently, lipolysis was stimulated with isoproterenol (1 μM) and (a) FA and (b) glycerol release was determined after 1 h using commercial kits. (c) Dose-dependent inhibition of isoproterenol-stimulated FA release from SGBS adipocytes by the HSL inhibitor 76-068 (HSLi). […] (e) DAG accumulation in SGBS adipocytes was analyzed by thin-layer chromatography (TLC) following 1 h incubation with HSLi (25 μM), NG-497 (40 μM), and a combination of both inhibitors. (f) Primary human adipocytes were prelabeled with 1 μCi [9,10-^3H] oleic acid per well for 12 h. Subsequently, basal and Forskolin (5 μM)-stimulated release of radioactivity was determined via liquid scintillation over a period of 2 h in the presence or absence of NG-497 (40 μM). FA release was calculated based on FA concentrations in conditioned media after 2 h as determined using a commercial kit. (g) Primary human adipocytes were preincubated in the presence or absence of NG-497 (40 μM) for 1 h. Subsequently, the medium was changed and FA release was monitored over a period of 3 h under the indicated conditions. Data are presented as mean ± SD. Statistical significance was determined via ANOVA followed by Bonferroni post hoc test (^#p < 0.05; ^##p < 0.01; ^###p < 0.001). TEXT PRINTED IN THE PICTURE: (a) NG-497: IC50 (μM) 1.5 ± 0.5 | (b) NG-497: IC50 (μM) 1.5 ± 0.5 | (c) HSLi: IC50 (nM) 100 ± 15 | (d) NG-497: IC50 (μM) 0.5 ± 0.1 […]
Lipidomic analysis. HepG2 cells were treated for 3 hours with 40 µM NG-497 or DMSO as control. Subsequently, cells were washed three times with PBS, harvested, and extracted with 700 µl MTBE:MeOH (10:3, v:v) for 1 hour at 4 °C on a Thermomix shaker at 1,400 rpm. 200 µl H2O were added, shaken for another 20 min, centrifuged for 10 min at 20,000 g for phase separation.
500 µl of the organic phase was transferred and evaporated under a stream of nitrogen. […] The aqueous phase was dried, the protein pellet incubated overnight with 400 µl NaOH/SDS (0.3 M/0.1%) and total protein content analyzed by the BCA protein assay (Thermo Fisher Scientific) according to the manufacturer’s instructions.
Lipid samples were separated on an Agilent 1290 Infinite II UHPLC with gradient elution over a Zorbax Extend-C18 reversed phase column (2.1 x 50 mm, 1.8µm) at 50°C. […] Samples were analyzed on an Agilent 6560 Ion Mobility Q-ToF mass spectrometer in Qtof-only mode over a scan range of 100 to 1700 m/z in negative mode and 150 to 1700 m/z in positive mode with automatic MS/MS generation. All samples were analyzed in triplicates using iterative acquisition mode to increase the number of MS/MS spectra for better annotation. […]

primary human adipocytes = assay: Lipolysis in primary human adipocytes; assay type: cell-based
Description: as §1, with “(f) Primary human adipocytes were prelabeled with 1 μCi [9,10-^3H] oleic acid per well for 12 h.” left out, “(g) Primary human adipocytes were preincubated in the presence or absence of NG-497 (40 μM) for 1 h.” left out, “Data are presented as mean ± SD.” left out, “0.001).” for “0.001). TEXT PRINTED IN THE PICTURE: (a) NG-497: IC50 (μM) 1.5 ± 0.5 | (b) NG-497: IC50 (μM) 1.5 ± 0.5 | (c) HSLi: IC50 (nM) 100 ± 15 | (d) NG-497: IC50 (μM) 0.5 ± 0.1”
Released free fatty acids were quantified via NEFA C kit (Fujifilm Wako Chemicals, Neuss, Germany) and release of p-nitrophenol was measured at 405 nm. […]

CCOc1ccc(-c2cc(OC)cc(C(=O)OC(C)C)n2)cc1 [NG-497]
IC50 ([1]; 1 h, read-out: IC50 of isoproterenol-stimulated FA release): 1.5 µM | IC50 ([1]; 1 h, read-out: IC50 of isoproterenol-stimulated glycerol release): 1.5 µM | DAG accumulation under combined inhibition of HSL and ATGL ([1]; NG-497 40 μM combined with HSLi 25 μM, 1 h, TLC): prevented DAG accumulation | effect on lipolysis ([1]; concentrations ≥10 μM): almost completely abolished lipolysis | activity at 40 µM (primary human adipocytes; Homo sapiens, Adipocyte, primary adipocytes, 1 h preincubation with NG-497 40 μM, within the third hour after pretreatment, read-out: lipolytic activity regained after inhibitor removal): ~40% | Forskolin-induced FA release (primary human adipocytes; primary human adipocytes, NG-497 40 μM, Forskolin 5 μM, 2 h, [9,10-3H] oleic acid label): diminished Forskolin-induced FA release to basal level
